Measurements published in ChEMBL document CHEMBL4316596, “Antimicrobial Peptides with High Proteolytic Resistance for Combating Gram-Negative Bacteria” (J Med Chem, 2019).
Calls of active or inactive are those of the source. No cut-off for these calls is given here.

Columns and labels:
Erythrocyte = assay: Hemolytic activity against human RBC after 1 hr; type: ADME, cell-based
Escherichia coli [1] = assay: Bactericidal activity against Escherichia coli ATCC 25922 incubated for 4 hrs followed by culture spread on agar plates and cultured overnight in presence of 0.125 to 4 mg/ml proteinase K; type: functional, organism-based
Chymotrypsin [2] = molecular target: T1, Chymotrypsin (Homo sapiens, UniProt Q99895+P17538+P40313+Q6GPI1); assay: Stability of the compound assessed as chymotrypsin (unknown origin)-mediated compound hydrolysis after 8 hrs by SDS-PAGE analysis; type: ADME, protein assay
Escherichia coli [3] = assay: Antimicrobial activity against Escherichia coli K88 after 24 hrs by NCCLS-protocol based assay; type: functional; conditions: K88, 24 h
Escherichia coli [4] = assay: Induction of cytoplasmic membrane depolarization in Escherichia coli ATCC 25922 at 2 uM up to 5000 secs by DiSC3-5 dye-based fluorescence spectrophotometric method; type: functional, organism-based
Escherichia coli [5] = assay: Bactericidal activity against Escherichia coli ATCC 25922 incubated for 4 hrs followed by culture spread on agar plates and cultured overnight in presence of 0.25 mg/ml chymotrypsin; type: functional; conditions: ATCC 25922, 4 h, read-out: MBC>99.9
Klebsiella pneumoniae [6] = assay: Bactericidal activity against Klebsiella pneumoniae incubated for 4 hrs followed by culture spread on agar plates and cultured overnight; type: functional; conditions: read-out: MBC>99.9
[7] = Stability of the compound assessed as Tritirachium album proteinase K-mediated compound hydrolysis by measuring compound helicity by CD spectroscopy; type: ADME; conditions: parengyodontium album
Escherichia coli [8] = assay: Bactericidal activity against Escherichia coli ATCC 25922 incubated for 4 hrs followed by culture spread on agar plates and cultured overnight in presence of MgCl2; type: functional; conditions: ATCC 25922, 4 h, read-out: MBC>99.9
Escherichia coli [9] = assay: Antibacterial activity against Escherichia coli ATCC 25922 infected in ICR mouse assessed as log reduction in bacterial cells in liver at 5 mg/kg, ip administered at 5 mg/kg, ip dosed at 0.5, 2, 4 and 8 hrs post-infection; type: functional
Escherichia coli [10] = assay: Antimicrobial activity against Escherichia coli 078 after 24 hrs by NCCLS-protocol based assay; type: functional; conditions: Escherichia coli, 078, 24 h
Escherichia coli [11] = assay: Bactericidal activity against Escherichia coli ATCC 25922 incubated for 4 hrs followed by culture spread on agar plates and cultured overnight in presence of 0.5 mg/ml chymotrypsin; type: functional; conditions: ATCC 25922, 4 h, read-out: MBC>99.9
Salmonella typhimurium [12] = assay: Antimicrobial activity against Salmonella typhimurium ATCC 14028 after 24 hrs by NCCLS-protocol based assay; type: functional, Salmonella enterica subsp. enterica serovar Typhimurium; conditions: Salmonella enterica, ATCC 14028, 24 h
Escherichia coli [13] = assay: Antimicrobial activity against Escherichia coli K99 after 24 hrs by NCCLS-protocol based assay; type: functional; conditions: K99, 24 h
Escherichia coli [14] = assay: Antibacterial activity against Escherichia coli ATCC 25922 infected in ICR mouse assessed as mouse survival at 5 mg/kg, ip dosed at 0.5, 2, 4 and 8 hrs post-infection; type: functional; conditions: ATCC 25922, ip
Escherichia coli [15] = assay: Bactericidal activity against Escherichia coli ATCC 25922 incubated for 4 hrs followed by culture spread on agar plates and cultured overnight in presence of FeCl3; type: functional; conditions: ATCC 25922, 4 h, read-out: MBC>99.9
Escherichia coli [16] = assay: Bactericidal activity against Escherichia coli K99 incubated for 4 hrs followed by culture spread on agar plates and cultured overnight; type: functional; conditions: K99, 4 h, read-out: MBC>99.9
Escherichia coli [17] = assay: Induction of cytoplasmic membrane depolarization in Escherichia coli ATCC 25922 assessed as induction cytoplasmic ONPG release at 2 to 16 uM up to 120 mins by DiSC3-5 dye-based fluorescence spectrophotometric method; type: functional, organism-based
Klebsiella pneumoniae [18] = assay: Antimicrobial activity against Klebsiella pneumoniae after 24 hrs by NCCLS-protocol based assay; type: functional
Pseudomonas aeruginosa [19] = assay: Bactericidal activity against Pseudomonas aeruginosa PAO1 incubated for 4 hrs followed by culture spread on agar plates and cultured overnight; type: functional; conditions: PAO1, 4 h, read-out: MBC>99.9
Trypsin = Trypsin (Homo sapiens, UniProt P07477+P07478+P35030); assay: Stability of the compound assessed as trypsin (unknown origin)-mediated compound hydrolysis after 8 hrs by SDS-PAGE analysis; type: ADME, protein assay
[20] = Selectivity ratio of HC10 for human RBC to geometric mean of the peptide MBC for bacteria
[21] = Stability of the compound assessed as Tritirachium album proteinase K-mediated compound hydrolysis after 8 hrs by SDS-PAGE analysis; type: ADME; conditions: parengyodontium album
Escherichia coli [22] = assay: Bactericidal activity against Escherichia coli ATCC 25922 incubated for 4 hrs followed by culture spread on agar plates and cultured overnight in presence of 1 mg/ml trypsin; type: functional; conditions: ATCC 25922, 4 h, read-out: MBC>99.9
Escherichia coli [23] = assay: Bactericidal activity against Escherichia coli ATCC 25922 incubated for 4 hrs followed by culture spread on agar plates and cultured overnight in presence of NH4Cl; type: functional; conditions: ATCC 25922, 4 h, read-out: MBC>99.9
Escherichia coli [24] = assay: Bactericidal activity against Escherichia coli ATCC 25922 incubated for 4 hrs followed by culture spread on agar plates and cultured overnight in presence of 4 mg/ml trypsin; type: functional; conditions: ATCC 25922, 4 h, read-out: MBC>99.9
Escherichia coli [25] = assay: Bactericidal activity against Escherichia coli ATCC 25922 incubated for 4 hrs followed by culture spread on agar plates and cultured overnight in presence of NaCl; type: functional; conditions: ATCC 25922, 4 h, read-out: MBC>99.9
Escherichia coli [26] = assay: Bactericidal activity against Escherichia coli ATCC 25922 incubated for 4 hrs followed by culture spread on agar plates and cultured overnight in presence of 25% serum albumin; type: functional; conditions: ATCC 25922, 4 h, read-out: MBC>99.9
Escherichia coli [27] = assay: Bactericidal activity against Escherichia coli 078 incubated for 4 hrs followed by culture spread on agar plates and cultured overnight; type: functional; conditions: Escherichia coli, 078, 4 h; read-out: MBC>99.9
Pseudomonas aeruginosa [28] = assay: Antimicrobial activity against Pseudomonas aeruginosa ATCC 27853 at sub-MBC after 60 passages; type: functional, organism-based
Escherichia coli [29] = assay: Bactericidal activity against Escherichia coli ATCC 25922 incubated for 4 hrs followed by culture spread on agar plates and cultured overnight in presence of 2 mg/ml chymotrypsin; type: functional; conditions: ATCC 25922, 4 h, read-out: MBC>99.9
Escherichia coli [30] = assay: Bactericidal activity against Escherichia coli ATCC 25922 incubated for 4 hrs followed by culture spread on agar plates and cultured overnight in presence of ZnCl2; type: functional; conditions: ATCC 25922, 4 h, read-out: MBC>99.9
Pseudomonas aeruginosa [31] = assay: Bactericidal activity against Pseudomonas aeruginosa CICC 21625 clinical isolates incubated for 4 hrs followed by culture spread on agar plates and cultured overnight; type: functional; conditions: CICC 21625, 4 h, read-out: MBC>99.9
Acinetobacter baumannii = assay: Antimicrobial activity against Acinetobacter baumannii after 24 hrs by NCCLS-protocol based assay; type: functional
Salmonella typhimurium [32] = assay: Bactericidal activity against Salmonella typhimurium C7731 incubated for 4 hrs followed by culture spread on agar plates and cultured overnight; type: functional, Salmonella enterica subsp. enterica serovar Typhimurium; conditions: Salmonella enterica, C7731, 4 h; read-out: MBC>99.9
Escherichia coli [33] = assay: Bactericidal activity against Escherichia coli ATCC 25922 incubated for 4 hrs followed by culture spread on agar plates and cultured overnight in presence of 50% serum albumin; type: functional; conditions: ATCC 25922, 4 h, read-out: MBC>99.9
Escherichia coli [34] = assay: Bactericidal activity against Escherichia coli ATCC 25922 incubated for 4 hrs followed by culture spread on agar plates and cultured overnight in presence of 12.5% serum albumin; type: functional; conditions: ATCC 25922, 4 h, read-out: MBC>99.9
[35] = Stability of the compound assessed as pepsin (unknown origin)-mediated compound hydrolysis by measuring compound helicity by CD spectroscopy; type: ADME; conditions: human
Chymotrypsin [36] = molecular target: T1, Chymotrypsin; assay: Stability of the compound assessed as chymotrypsin (unknown origin)-mediated compound hydrolysis after 4 hrs by SDS-PAGE analysis; type: ADME, protein assay
Chymotrypsin [37] = molecular target: T1, Chymotrypsin; assay: Stability of the compound assessed as chymotrypsin (unknown origin)-mediated compound hydrolysis by measuring compound helicity by CD spectroscopy; type: ADME, protein assay

H-IRPIIRPIIRPIIRPIIRPIIRPIIRPI-NH2
HC10 (Erythrocyte): > 128 µM
Activity (Escherichia coli [1]): Active
Stability (Chymotrypsin [2]): Stable
MIC95 (Escherichia coli [3]): 1 µM
Activity (Escherichia coli [4]): Active
MBC (Escherichia coli [5]): 2 µM
MBC (Klebsiella pneumoniae [6]): 4 µM
Stability [7]: Unstable
MBC (Escherichia coli [8]): 2 µM
log(activity) (Escherichia coli [9]): 2
MIC95 (Escherichia coli [10]): 1 µM
MBC (Escherichia coli [11]): 2 µM
MIC95 (Salmonella typhimurium [12]): 2 µM
MIC95 (Escherichia coli [13]): 1 µM
survival at 5 mg/kg (Escherichia coli [14]): 75%
MBC (Escherichia coli [15]): 2 µM
MBC (Escherichia coli [16]): 2 µM
Activity (Escherichia coli [17]): Active
MIC95 (Klebsiella pneumoniae [18]): 2 µM
MBC (Pseudomonas aeruginosa [19]): 8 µM
Stability (Trypsin): Stable
Ratio [20]: 51.5
Stability [21]: Stable
MBC (Escherichia coli [22]): 2 µM
MBC (Escherichia coli [23]): 2 µM
MBC (Escherichia coli [24]): 2 µM
MBC (Escherichia coli [25]): 8 µM
MBC (Escherichia coli [26]): 8 µM
MBC (Escherichia coli [27]): 1 µM
Activity (Pseudomonas aeruginosa [28]): Active
MBC (Escherichia coli [29]): 2 µM
MBC (Escherichia coli [30]): 2 µM
MBC (Pseudomonas aeruginosa [31]): 64 µM
MIC95 (Acinetobacter baumannii): 1 µM
MBC (Salmonella typhimurium [32]): 2 µM
MBC (Escherichia coli [33]): 16 µM
MBC (Escherichia coli [34]): 8 µM

H-LKPLLKPLLKPLLKPLLKPLLKPLLKPL-NH2
HC10 (Erythrocyte): > 128 µM
MIC95 (Escherichia coli [3]): 0.5 µM
MBC (Escherichia coli [5]): 1 µM
MBC (Klebsiella pneumoniae [6]): 2 µM
MBC (Escherichia coli [8]): 2 µM
log(activity) (Escherichia coli [9]): 1
MIC95 (Escherichia coli [10]): 2 µM
MBC (Escherichia coli [11]): 1 µM
MIC95 (Salmonella typhimurium [12]): 1 µM
MIC95 (Escherichia coli [13]): 1 µM
survival at 5 mg/kg (Escherichia coli [14]): 37.5%
MBC (Escherichia coli [15]): 2 µM
MBC (Escherichia coli [16]): 2 µM
MIC95 (Klebsiella pneumoniae [18]): 1 µM
MBC (Pseudomonas aeruginosa [19]): 1 µM
Stability (Trypsin): Stable
Ratio [20]: 94.5
MBC (Escherichia coli [22]): 1 µM
Stability [35]: Unstable
MBC (Escherichia coli [23]): 1 µM
MBC (Escherichia coli [24]): 1 µM
MBC (Escherichia coli [25]): 8 µM
MBC (Escherichia coli [26]): 8 µM
MBC (Escherichia coli [27]): 2 µM
Activity (Pseudomonas aeruginosa [28]): Active
Stability (Chymotrypsin [36]): Unstable
MBC (Escherichia coli [29]): 1 µM
MBC (Escherichia coli [30]): 1 µM
MBC (Pseudomonas aeruginosa [31]): 16 µM
MIC95 (Acinetobacter baumannii): 1 µM
MBC (Salmonella typhimurium [32]): 2 µM
MBC (Escherichia coli [33]): 64 µM
Stability (Chymotrypsin [37]): Unstable
MBC (Escherichia coli [34]): 2 µM

H-LRPLLRPLLRPLLRPLLRPLLRPLLRPL-NH2
HC10 (Erythrocyte): 64 µM
MIC95 (Escherichia coli [3]): 1 µM
MBC (Escherichia coli [5]): 2 µM
MBC (Klebsiella pneumoniae [6]): 4 µM
MBC (Escherichia coli [8]): 2 µM
log(activity) (Escherichia coli [9]): 1
MIC95 (Escherichia coli [10]): 1 µM
MBC (Escherichia coli [11]): 2 µM
MIC95 (Salmonella typhimurium [12]): 1 µM
MIC95 (Escherichia coli [13]): 1 µM
survival at 5 mg/kg (Escherichia coli [14]): 37.5%
MBC (Escherichia coli [15]): 2 µM
MBC (Escherichia coli [16]): 2 µM
MIC95 (Klebsiella pneumoniae [18]): 2 µM
MBC (Pseudomonas aeruginosa [19]): 2 µM
Stability (Trypsin): Stable
Ratio [20]: 24.7
MBC (Escherichia coli [22]): 2 µM
Stability [35]: Unstable
MBC (Escherichia coli [23]): 2 µM
MBC (Escherichia coli [24]): 2 µM
MBC (Escherichia coli [25]): 4 µM
MBC (Escherichia coli [26]): 8 µM
MBC (Escherichia coli [27]): 1 µM
Activity (Pseudomonas aeruginosa [28]): Active
Stability (Chymotrypsin [36]): Unstable
MBC (Escherichia coli [29]): > 64 µM
MBC (Escherichia coli [30]): 2 µM
MBC (Pseudomonas aeruginosa [31]): 8 µM
MIC95 (Acinetobacter baumannii): 1 µM
MBC (Salmonella typhimurium [32]): 2 µM
MBC (Escherichia coli [33]): 16 µM
Stability (Chymotrypsin [37]): Unstable
MBC (Escherichia coli [34]): 4 µM
